Assays:
serotonin transporter = experiment: 3H-paroxetine displacement binding, serotonin transporter affinity; details: displacement of 3H-paroxetine from male rat frontal cortical membranes; read-out: 5-HT Transporter Affinity KI
[1] = molecular target: cloned human 5HT1A receptors; experiment: 35S-GTPγS binding assay, 5HT1A antagonist activity; format: biochemical; details: reversal of the effects of the standard agonist 8-OH-DPAT, read-out: 5HT1A Function IC50
Source text: Agonists produce an increase in binding whereas antagonists produce no increase but rather reverse the effects of the standard agonist 8-OH-DPAT. The test compound's maximum inhibitory effect is represented as the Imax, while its potency is defined by the IC50.

human 5HT1A receptors = experiment: [3H] 8-OH-DPAT displacement binding, 5HT1A receptor affinity; details: displacement of [3H] 8-OH-DPAT; CHO cells stably transfected with human 5HT1A receptors
Source text: 8-OH-DPAT (dipropylamino-tetralin) from the 5HT1A serotonin receptor following a modification of the procedure of Hall et al., J. Neurochem.

SMILES | Ki (serotonin transporter) | IC50 [1] | Ki (human 5HT1A receptors)
CCc1cccc2c(CC3CCN(CC4COc5ccc6nc(C)ccc6c5O4)CC3)c[nH]c12 (stereo not drawn) [Example 19, 2-({4-[(7-Ethyl-1H-indol-3-yl)methyl]piperidin-1-yl}methyl)-8-methyl-2,3-dihydro[1,4]dioxino[2,3-f]quinoline] | 11 nM | 169 nM | 7.38 nM
Cc1ccc2c3c(ccc2n1)OCC(CN1CCC(Cc2c[nH]c4cc(Cl)ccc24)CC1)O3 (stereo not drawn) [Example 20, 2-({4-[(6-Chloro-1H-indol-3-yl)methyl]piperidin-1-yl}methyl)-8-methyl-2,3-dihydro[1,4]dioxino[2,3-f]quinoline] | 7 nM | 666 nM | 25.4 nM
